Assays:
IKZF3 = biological target: T1, IKZF3 (Homo sapiens, UniProt Q96SW2+Q9UKT9); assay: Western blot, degradation of substrate protein in hPBMCs; format: cell-based
T1 construct: effects of the compounds of the present disclosure on the expression of target proteins in cells; endogenous in cells; host or cells: human PBMCs (Milecell Biotechnologies)

WEE1 = biological target: T2, WEE1 (Homo sapiens, UniProt P30291+Q96SW2); assay: as above; format: cell-based
T2 construct: effects of the compounds of the present disclosure on the expression of target proteins in cells; endogenous in cells; host or cells: human PBMCs (Milecell Biotechnologies)

CK1α = biological target: T3, CK1α (Homo sapiens, UniProt P48729+Q96SW2); assay: as above; format: cell-based
T3 construct: effects of the compounds of the present disclosure on the expression of target proteins in cells; endogenous in cells; host or cells: human PBMCs (Milecell Biotechnologies)

IKZF2 = biological target: T4, IKZF2 (Homo sapiens, UniProt Q96SW2+Q9UKS7); assay: as above; format: cell-based
T4 construct: effects of the compounds of the present disclosure on the expression of target proteins in cells; endogenous in cells; host or cells: human PBMCs (Milecell Biotechnologies)

IKZF1 = biological target: T5, IKZF1 (Homo sapiens, UniProt Q13422+Q96SW2); assay: as above; format: cell-based
T5 construct: effects of the compounds of the present disclosure on the expression of target proteins in cells; endogenous in cells; host or cells: human PBMCs (Milecell Biotechnologies)

[1] = biological target: T6, human Cereblon WT GST-tagged protein (Homo sapiens, UniProt Q96SW2); assay: CRBN-binding affinity, HTRF (CEREBLON BINDING kit); details: for inhibition at 0.5 µM: read-out: Inhibition Rate at 0.5 µM (%); for inhibition at 2 µM: read-out: Inhibition Rate at 2 µM (%)
T6 construct: purchased CISBIO 64BDCRBNPEH

GSPT1 = assay: Western blot, degradation of substrate protein in hPBMCs; format: cell-based, Human
[2] = 24 hours treatment, compounds at 50 nM and 500 nM (concentration behind the class not stated)
[3] = Western blot, 24 hours of compound treatment, compounds tested at 50 nM and 500 nM (concentration for the table not stated)

T4 sequence (Q9UKS7 whole entry): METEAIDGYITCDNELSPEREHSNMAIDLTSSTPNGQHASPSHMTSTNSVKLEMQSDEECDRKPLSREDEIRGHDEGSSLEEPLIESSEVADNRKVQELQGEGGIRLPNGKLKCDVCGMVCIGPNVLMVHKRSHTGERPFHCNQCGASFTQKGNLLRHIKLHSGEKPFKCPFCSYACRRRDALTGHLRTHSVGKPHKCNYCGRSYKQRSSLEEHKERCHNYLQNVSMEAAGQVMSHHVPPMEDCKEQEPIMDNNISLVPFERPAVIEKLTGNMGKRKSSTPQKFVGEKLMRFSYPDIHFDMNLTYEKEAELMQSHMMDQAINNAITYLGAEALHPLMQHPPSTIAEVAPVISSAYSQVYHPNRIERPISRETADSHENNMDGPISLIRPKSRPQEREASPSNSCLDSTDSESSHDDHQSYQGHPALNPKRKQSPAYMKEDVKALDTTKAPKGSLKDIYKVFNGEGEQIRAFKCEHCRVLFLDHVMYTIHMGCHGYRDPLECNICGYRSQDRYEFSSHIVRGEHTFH
T4 sequence (Q96SW2 whole entry): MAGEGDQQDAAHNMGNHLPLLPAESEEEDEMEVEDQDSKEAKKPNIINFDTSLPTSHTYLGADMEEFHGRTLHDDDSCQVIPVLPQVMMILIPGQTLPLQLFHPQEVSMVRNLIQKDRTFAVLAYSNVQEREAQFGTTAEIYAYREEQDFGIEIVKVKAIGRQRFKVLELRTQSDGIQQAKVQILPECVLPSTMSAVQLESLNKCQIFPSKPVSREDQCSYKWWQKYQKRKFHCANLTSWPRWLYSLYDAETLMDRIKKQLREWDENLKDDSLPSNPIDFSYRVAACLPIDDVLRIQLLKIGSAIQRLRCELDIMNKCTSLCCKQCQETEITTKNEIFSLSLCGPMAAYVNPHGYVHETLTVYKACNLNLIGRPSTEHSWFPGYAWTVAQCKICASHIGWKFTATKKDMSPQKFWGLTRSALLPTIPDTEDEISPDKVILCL
T4 sequence (Q16531 whole entry partner): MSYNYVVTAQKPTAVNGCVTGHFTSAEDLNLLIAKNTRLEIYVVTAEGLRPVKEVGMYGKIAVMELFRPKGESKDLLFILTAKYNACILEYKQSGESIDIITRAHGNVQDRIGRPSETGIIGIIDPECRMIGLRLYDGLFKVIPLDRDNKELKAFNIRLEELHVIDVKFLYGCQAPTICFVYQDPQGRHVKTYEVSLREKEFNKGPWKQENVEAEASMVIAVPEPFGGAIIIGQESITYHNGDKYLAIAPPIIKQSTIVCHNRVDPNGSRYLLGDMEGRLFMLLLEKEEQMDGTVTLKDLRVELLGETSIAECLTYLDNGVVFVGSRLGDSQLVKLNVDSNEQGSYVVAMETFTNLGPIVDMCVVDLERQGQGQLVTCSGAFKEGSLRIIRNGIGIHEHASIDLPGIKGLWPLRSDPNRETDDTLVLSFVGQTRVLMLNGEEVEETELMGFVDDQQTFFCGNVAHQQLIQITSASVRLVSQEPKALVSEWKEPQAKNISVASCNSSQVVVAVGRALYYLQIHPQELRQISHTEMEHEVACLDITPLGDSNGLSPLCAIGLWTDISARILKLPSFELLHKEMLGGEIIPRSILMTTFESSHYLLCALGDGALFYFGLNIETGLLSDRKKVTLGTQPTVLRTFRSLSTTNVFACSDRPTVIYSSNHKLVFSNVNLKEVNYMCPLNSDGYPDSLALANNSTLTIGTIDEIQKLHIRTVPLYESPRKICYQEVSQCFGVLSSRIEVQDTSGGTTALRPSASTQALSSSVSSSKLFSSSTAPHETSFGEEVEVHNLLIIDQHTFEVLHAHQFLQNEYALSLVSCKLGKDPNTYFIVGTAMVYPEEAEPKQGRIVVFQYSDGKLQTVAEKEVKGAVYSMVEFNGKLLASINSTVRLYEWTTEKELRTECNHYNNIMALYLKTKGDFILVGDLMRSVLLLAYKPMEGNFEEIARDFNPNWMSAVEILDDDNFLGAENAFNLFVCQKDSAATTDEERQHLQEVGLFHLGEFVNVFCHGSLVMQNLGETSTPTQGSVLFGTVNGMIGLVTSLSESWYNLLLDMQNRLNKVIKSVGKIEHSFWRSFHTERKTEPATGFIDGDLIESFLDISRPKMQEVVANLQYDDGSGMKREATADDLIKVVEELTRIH
T1 sequence (Q9UKT9 whole entry): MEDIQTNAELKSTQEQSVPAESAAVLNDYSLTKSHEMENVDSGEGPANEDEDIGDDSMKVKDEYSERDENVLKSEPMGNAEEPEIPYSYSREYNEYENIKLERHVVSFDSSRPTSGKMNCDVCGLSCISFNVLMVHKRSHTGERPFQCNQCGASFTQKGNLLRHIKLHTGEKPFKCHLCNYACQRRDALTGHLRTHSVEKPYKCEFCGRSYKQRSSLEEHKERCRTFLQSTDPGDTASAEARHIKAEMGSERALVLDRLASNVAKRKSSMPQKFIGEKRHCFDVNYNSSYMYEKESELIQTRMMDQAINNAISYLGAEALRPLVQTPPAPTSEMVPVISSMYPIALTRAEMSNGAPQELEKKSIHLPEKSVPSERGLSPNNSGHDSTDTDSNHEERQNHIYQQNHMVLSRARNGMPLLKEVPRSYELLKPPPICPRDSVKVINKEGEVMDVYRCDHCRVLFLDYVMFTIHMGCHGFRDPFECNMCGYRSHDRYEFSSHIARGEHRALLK
T1 sequence (Q96SW2 whole entry): as the sequence (Q96SW2 whole entry) above
T1 sequence (Q16531 whole entry partner): as the sequence (Q16531 whole entry partner) above
T5 sequence (Q13422 whole entry): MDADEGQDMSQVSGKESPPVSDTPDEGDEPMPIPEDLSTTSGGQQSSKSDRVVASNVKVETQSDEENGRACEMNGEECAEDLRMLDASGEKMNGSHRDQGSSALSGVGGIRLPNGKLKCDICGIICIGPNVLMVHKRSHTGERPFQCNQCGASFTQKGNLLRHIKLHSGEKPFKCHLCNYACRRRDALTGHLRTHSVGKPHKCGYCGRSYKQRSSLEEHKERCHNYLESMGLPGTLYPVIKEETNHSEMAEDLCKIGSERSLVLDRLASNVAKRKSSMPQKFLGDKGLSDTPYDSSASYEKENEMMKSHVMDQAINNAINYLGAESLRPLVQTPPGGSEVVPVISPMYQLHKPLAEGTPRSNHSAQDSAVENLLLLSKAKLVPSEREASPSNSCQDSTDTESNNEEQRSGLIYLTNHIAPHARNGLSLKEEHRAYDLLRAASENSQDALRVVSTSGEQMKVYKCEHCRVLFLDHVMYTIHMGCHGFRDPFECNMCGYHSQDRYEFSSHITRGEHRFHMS
T5 sequence (Q96SW2 whole entry): as the sequence (Q96SW2 whole entry) above
T5 sequence (Q16531 whole entry partner): as the sequence (Q16531 whole entry partner) above
T3 sequence (P48729 whole entry): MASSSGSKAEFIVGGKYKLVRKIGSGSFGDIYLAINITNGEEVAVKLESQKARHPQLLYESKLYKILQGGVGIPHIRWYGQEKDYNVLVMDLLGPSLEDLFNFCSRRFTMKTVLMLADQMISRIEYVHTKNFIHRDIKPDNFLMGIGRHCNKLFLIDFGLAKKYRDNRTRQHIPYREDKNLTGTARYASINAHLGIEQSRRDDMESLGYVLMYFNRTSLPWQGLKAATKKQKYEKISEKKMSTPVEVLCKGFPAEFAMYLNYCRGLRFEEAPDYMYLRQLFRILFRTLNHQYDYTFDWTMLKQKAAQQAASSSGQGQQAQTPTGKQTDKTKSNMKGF
T3 sequence (Q96SW2 whole entry): as the sequence (Q96SW2 whole entry) above
T3 sequence (Q16531 whole entry partner): as the sequence (Q16531 whole entry partner) above
T6 sequence (Q96SW2 whole entry): as the sequence (Q96SW2 whole entry) above
T2 sequence (P30291 whole entry): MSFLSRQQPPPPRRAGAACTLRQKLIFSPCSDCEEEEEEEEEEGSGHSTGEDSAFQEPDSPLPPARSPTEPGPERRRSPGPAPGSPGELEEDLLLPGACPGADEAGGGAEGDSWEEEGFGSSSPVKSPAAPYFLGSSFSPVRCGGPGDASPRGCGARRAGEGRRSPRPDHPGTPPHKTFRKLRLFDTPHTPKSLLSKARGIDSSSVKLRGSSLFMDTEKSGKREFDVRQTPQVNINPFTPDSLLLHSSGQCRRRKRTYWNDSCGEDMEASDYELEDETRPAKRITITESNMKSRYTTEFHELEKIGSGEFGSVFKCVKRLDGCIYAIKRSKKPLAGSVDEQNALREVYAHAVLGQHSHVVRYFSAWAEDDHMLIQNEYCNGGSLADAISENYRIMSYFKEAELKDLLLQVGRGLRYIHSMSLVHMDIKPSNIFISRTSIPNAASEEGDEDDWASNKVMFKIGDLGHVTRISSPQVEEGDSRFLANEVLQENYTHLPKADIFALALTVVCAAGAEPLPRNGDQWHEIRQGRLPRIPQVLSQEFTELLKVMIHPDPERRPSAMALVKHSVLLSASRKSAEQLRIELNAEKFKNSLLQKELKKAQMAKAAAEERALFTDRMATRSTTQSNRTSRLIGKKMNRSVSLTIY
T2 sequence (Q96SW2 whole entry): as the sequence (Q96SW2 whole entry) above
T2 sequence (Q16531 whole entry partner): as the sequence (Q16531 whole entry partner) above

CC1(C)CCC(CN2C3CC2CN(Cc2ccc4c(c2)CN(C2CCC(=O)NC2=O)C4=S)C3)=C(c2ccc(Cl)cc2)C1 (centres unmarked) [GT-08161, 3-(5-((6-((4'-chloro-5,5-dimethyl-3,4,5,6-tetrahydro-[1,1'-biphenyl]-2-yl)methyl)-3,6-diazabicyclo[3.1.1]heptan-3-yl)methyl)-1-thioxoisoindolin-2-yl)piperidine-2,6-dione]
IKZF3 substrate protein remaining % (IKZF3; [2]): A (0% ≤ substrate protein remaining % ≤ 80%) | Wee1 substrate protein remaining % (WEE1; [2]): A (0% ≤ substrate protein remaining % ≤ 80%) | CK1α substrate protein remaining % (CK1α; [2]): B (80%< substrate protein remaining %≤ 100%) | IKZF2 substrate protein remaining % (IKZF2; [2]): A (0% ≤ substrate protein remaining % ≤ 80%) | IKZF 1 substrate protein remaining % (IKZF1; [2]): B (80%< substrate protein remaining %≤ 100%) | inhibition at 0.5 µM [1]: 40 to 53% | inhibition at 2 µM [1]: 80 to 100% | GSPT1 substrate protein remaining % (GSPT1; [2]): A (0% ≤ substrate protein remaining % ≤ 80%)

Cc1cc(C2=CCN(Cc3cccc4c3CN(C3CCC(=O)NC3=O)C4=S)CC2)cs1 (centres unmarked) [GT-08318, 3-(4-((4-(5-methylthiophen-3-yl)-3,6-dihydropyridin-1(2H)-yl)methyl)-1-thioxoisoindolin-2-yl)piperidine-2,6-dione]
IKZF3 substrate protein remaining % (IKZF3; [2]): A (0% ≤ substrate protein remaining % ≤ 80%) | Wee1 substrate protein remaining % (WEE1; [2]): A (0% ≤ substrate protein remaining % ≤ 80%) | CK1α substrate protein remaining % (CK1α; [2]): B (80%< substrate protein remaining %≤ 100%) | IKZF2 substrate protein remaining % (IKZF2; [2]): B (80%< substrate protein remaining %≤ 100%) | IKZF 1 substrate protein remaining % (IKZF1; [2]): B (80%< substrate protein remaining %≤ 100%) | inhibition at 0.5 µM [1]: 40 to 53% | inhibition at 2 µM [1]: 60 to 80% | GSPT1 substrate protein remaining % (GSPT1; [2]): B (80%< substrate protein remaining %≤ 100%)

O=C1CCC(N2Cc3cc(CN4CCC(c5ccco5)CC4)ccc3C2=S)C(=O)N1 (centres unmarked) [GT-05148, 3-(5-((4-(furan-2-yl)piperidin-1-yl)methyl)-1-thioxoisoindolin-2-yl)piperidine-2,6-dione]
IKZF3 substrate protein remaining % (IKZF3; [3]): B (80%< substrate protein remaining %≤ 100%) | Wee1 substrate protein remaining % (WEE1; [3]): B (80%< substrate protein remaining %≤ 100%) | CK1α substrate protein remaining % (CK1α; [3]): B (80%< substrate protein remaining %≤ 100%) | IKZF2 substrate protein remaining % (IKZF2; [3]): B (80%< substrate protein remaining %≤ 100%) | IKZF 1 substrate protein remaining % (IKZF1; [3]): B (80%< substrate protein remaining %≤ 100%) | IC50 ([1]; CRBN binding, HTRF, 3 hours at room temperature, read-out: HTRF IC50): 0.1 to 0.5 µM | GSPT1 substrate protein remaining % (GSPT1; [3]): A (0% ≤ substrate protein remaining % ≤ 80%)

O=C1CCC(N2Cc3c(CN4CCC(c5c[nH]c6ncccc56)CC4)cccc3C2=S)C(=O)N1 (centres unmarked) [GT-08848, 3-(4-((4-(1H-pyrrolo[2,3-b]pyridin-3-yl)piperidin-1-yl)methyl)-1-thioxoisoindolin-2-yl)piperidine-2,6-dione]
IKZF3 substrate protein remaining % (IKZF3; [3]): B (80%< substrate protein remaining %≤ 100%) | Wee1 substrate protein remaining % (WEE1; [3]): A (0% ≤ substrate protein remaining % ≤ 80%) | CK1α substrate protein remaining % (CK1α; [3]): B (80%< substrate protein remaining %≤ 100%) | IKZF2 substrate protein remaining % (IKZF2; [3]): B (80%< substrate protein remaining %≤ 100%) | IKZF 1 substrate protein remaining % (IKZF1; [3]): B (80%< substrate protein remaining %≤ 100%) | inhibition at 0.5 µM [1]: 30 to 40% | inhibition at 2 µM [1]: 80 to 100% | GSPT1 substrate protein remaining % (GSPT1; [3]): B (80%< substrate protein remaining %≤ 100%)

O=C1CCC(N2Cc3c(CN4CCC(N(c5ccccc5)c5ccccc5)CC4)cccc3C2=S)C(=O)N1 (centres unmarked) [GT-08209, 3-(4-((4-(diphenylamino)piperidin-1-yl)methyl)-1-thioxoisoindolin-2-yl)piperidine-2,6-dione]
IKZF3 substrate protein remaining % (IKZF3; [3]): B (80%< substrate protein remaining %≤ 100%) | Wee1 substrate protein remaining % (WEE1; [3]): A (0% ≤ substrate protein remaining % ≤ 80%) | CK1α substrate protein remaining % (CK1α; [3]): B (80%< substrate protein remaining %≤ 100%) | IKZF2 substrate protein remaining % (IKZF2; [3]): B (80%< substrate protein remaining %≤ 100%) | IKZF 1 substrate protein remaining % (IKZF1; [3]): B (80%< substrate protein remaining %≤ 100%) | inhibition at 0.5 µM [1]: 60 to 80% | inhibition at 2 µM [1]: 80 to 100% | GSPT1 substrate protein remaining % (GSPT1; [3]): A (0% ≤ substrate protein remaining % ≤ 80%)

O=C1CCC(N2Cc3c(CN4CC=C(c5ccsc5)CC4)cccc3C2=S)C(=O)N1 (centres unmarked) [GT-08300, 3-(4-((4-(thiophen-3-yl)-3,6-dihydropyridin-1(2H)-yl)methyl)-1-thioxoisoindolin-2-yl)piperidine-2,6-dione]
IKZF3 substrate protein remaining % (IKZF3; [3]): B (80%< substrate protein remaining %≤ 100%) | Wee1 substrate protein remaining % (WEE1; [3]): B (80%< substrate protein remaining %≤ 100%) | CK1α substrate protein remaining % (CK1α; [3]): B (80%< substrate protein remaining %≤ 100%) | IKZF2 substrate protein remaining % (IKZF2; [3]): A (0% ≤ substrate protein remaining % ≤ 80%) | IKZF 1 substrate protein remaining % (IKZF1; [3]): B (80%< substrate protein remaining %≤ 100%) | inhibition at 0.5 µM [1]: 40 to 53% | inhibition at 2 µM [1]: 60 to 80% | GSPT1 substrate protein remaining % (GSPT1; [3]): B (80%< substrate protein remaining %≤ 100%)

Cc1cscc1N1CCN(Cc2cccc3c2CN(C2CCC(=O)NC2=O)C3=S)CC1 (centres unmarked) [GT-08306, 3-(4-((4-(4-methylthiophen-3-yl)piperazin-1-yl)methyl)-1-thioxoisoindolin-2-yl)piperidine-2,6-dione]
IKZF3 substrate protein remaining % (IKZF3; [2]): B (80%< substrate protein remaining %≤ 100%) | Wee1 substrate protein remaining % (WEE1; [2]): A (0% ≤ substrate protein remaining % ≤ 80%) | CK1α substrate protein remaining % (CK1α; [2]): B (80%< substrate protein remaining %≤ 100%) | IKZF2 substrate protein remaining % (IKZF2; [2]): B (80%< substrate protein remaining %≤ 100%) | IKZF 1 substrate protein remaining % (IKZF1; [2]): B (80%< substrate protein remaining %≤ 100%) | inhibition at 0.5 µM [1]: 53 to 60% | inhibition at 2 µM [1]: 80 to 100% | GSPT1 substrate protein remaining % (GSPT1; [2]): B (80%< substrate protein remaining %≤ 100%)

O=C1CCC(N2Cc3cc(CN4CCN(C(c5ccc(Cl)cc5)c5ccc(Cl)cc5)CC4)ccc3C2=S)C(=O)N1 (centres unmarked) [GT-07737, 3-(5-((4-(bis(4-chlorophenyl)methyl)piperazin-1-yl)methyl)-1-thioxoisoindolin-2-yl)piperidine-2,6-dione]
IKZF3 substrate protein remaining % (IKZF3; [3]): A (0% ≤ substrate protein remaining % ≤ 80%) | Wee1 substrate protein remaining % (WEE1; [3]): B (80%< substrate protein remaining %≤ 100%) | CK1α substrate protein remaining % (CK1α; [3]): B (80%< substrate protein remaining %≤ 100%) | IKZF2 substrate protein remaining % (IKZF2; [3]): A (0% ≤ substrate protein remaining % ≤ 80%) | IKZF 1 substrate protein remaining % (IKZF1; [3]): A (0% ≤ substrate protein remaining % ≤ 80%) | inhibition at 0.5 µM [1]: 30 to 40% | inhibition at 2 µM [1]: 53 to 60% | GSPT1 substrate protein remaining % (GSPT1; [3]): A (0% ≤ substrate protein remaining % ≤ 80%)

COc1cccc(N2CCN(Cc3cccc4c3CN(C3CCC(=O)NC3=O)C4=S)CC2)c1 (centres unmarked) [GT-08304, 3-(4-((4-(3-methoxyphenyl)piperazin-1-yl)methyl)-1-thioxoisoindolin-2-yl)piperidine-2,6-dione]
IKZF3 substrate protein remaining % (IKZF3; [3]): B (80%< substrate protein remaining %≤ 100%) | Wee1 substrate protein remaining % (WEE1; [3]): A (0% ≤ substrate protein remaining % ≤ 80%) | CK1α substrate protein remaining % (CK1α; [3]): B (80%< substrate protein remaining %≤ 100%) | IKZF2 substrate protein remaining % (IKZF2; [3]): B (80%< substrate protein remaining %≤ 100%) | IKZF 1 substrate protein remaining % (IKZF1; [3]): A (0% ≤ substrate protein remaining % ≤ 80%) | inhibition at 0.5 µM [1]: 60 to 80% | inhibition at 2 µM [1]: 60 to 80% | GSPT1 substrate protein remaining % (GSPT1; [3]): B (80%< substrate protein remaining %≤ 100%)

O=C1CCC(N2Cc3c(CN4CCN(C(c5ccccc5)c5ccccc5)CC4)cccc3C2=S)C(=O)N1 (centres unmarked) [GT-08191, 3-(4-((4-benzhydrylpiperazin-1-yl)methyl)-1-thioxoisoindolin-2-yl)piperidine-2,6-dione]
IKZF3 substrate protein remaining % (IKZF3; [3]): B (80%< substrate protein remaining %≤ 100%) | Wee1 substrate protein remaining % (WEE1; [3]): B (80%< substrate protein remaining %≤ 100%) | CK1α substrate protein remaining % (CK1α; [3]): B (80%< substrate protein remaining %≤ 100%) | IKZF2 substrate protein remaining % (IKZF2; [3]): B (80%< substrate protein remaining %≤ 100%) | IKZF 1 substrate protein remaining % (IKZF1; [3]): B (80%< substrate protein remaining %≤ 100%) | inhibition at 0.5 µM [1]: 30 to 40% | inhibition at 2 µM [1]: 60 to 80% | GSPT1 substrate protein remaining % (GSPT1; [3]): A (0% ≤ substrate protein remaining % ≤ 80%)

O=C1CCC(N2Cc3cc(CN4CCN(c5ncnc6sc7c(c56)CCCC7)CC4)ccc3C2=S)C(=O)N1 (centres unmarked) [GT-09300, 3-(5-((4-(5,6,7,8-tetrahydrobenzo[4,5]thieno[2,3-d]pyrimidin-4-yl)piperazin-1-yl)methyl)-1-thioxoisoindolin-2-yl)piperidine-2,6-dione]
IKZF3 substrate protein remaining % (IKZF3; [2]): A (0% ≤ substrate protein remaining % ≤ 80%) | Wee1 substrate protein remaining % (WEE1; [2]): B (80%< substrate protein remaining %≤ 100%) | CK1α substrate protein remaining % (CK1α; [2]): B (80%< substrate protein remaining %≤ 100%) | IKZF2 substrate protein remaining % (IKZF2; [2]): A (0% ≤ substrate protein remaining % ≤ 80%) | IKZF 1 substrate protein remaining % (IKZF1; [2]): A (0% ≤ substrate protein remaining % ≤ 80%) | inhibition at 0.5 µM [1]: 53 to 60% | inhibition at 2 µM [1]: 80 to 100% | GSPT1 substrate protein remaining % (GSPT1; [2]): B (80%< substrate protein remaining %≤ 100%)

Cc1cccc(N2CCN(Cc3cccc4c3CN(C3CCC(=O)NC3=O)C4=S)CC2)c1 (centres unmarked) [GT-08498, 3-(1-thioxo-4-((4-(m-tolyl)piperazin-1-yl)methyl)isoindolin-2-yl)piperidine-2,6-dione]
IKZF3 substrate protein remaining % (IKZF3; [3]): B (80%< substrate protein remaining %≤ 100%) | Wee1 substrate protein remaining % (WEE1; [3]): A (0% ≤ substrate protein remaining % ≤ 80%) | CK1α substrate protein remaining % (CK1α; [3]): B (80%< substrate protein remaining %≤ 100%) | IKZF2 substrate protein remaining % (IKZF2; [3]): A (0% ≤ substrate protein remaining % ≤ 80%) | IKZF 1 substrate protein remaining % (IKZF1; [3]): B (80%< substrate protein remaining %≤ 100%) | inhibition at 0.5 µM [1]: 40 to 53% | inhibition at 2 µM [1]: 60 to 80% | GSPT1 substrate protein remaining % (GSPT1; [3]): A (0% ≤ substrate protein remaining % ≤ 80%)

Reference: patent EP4745135A1 (Gluetacs Therapeutics (Shanghai) Co., Ltd., priority 2023, dated 2025)
